Experimental findings from patent publication US11389440B2, “PIM kinase inhibitors in combination with autophagy inhibitors for treatment of cancers” (UNIVERSITY OF MARYLAND, BALTIMORE COUNTY, priority 2017, dated 2022) are described below.

For one assay, the system named is Molm16 cells. The experiment in a line: Molm16 cells treated with AZD1208 in combination with autophagy inhibitors (FA values, CI values). Type of assay: cell-based. Set-up: key: fraction of cells affected by treatment (0–1). Here is the method:
(§1) General experimental procedure: 20,000 (EOL1) cells were seeded per well in 96-well plates. […] At 48 hours the MTT metabolism indicative of number of live cells was measured by MTT assay (Promega, Cat: G4000). The resulting values were used to evaluate the Fa (fraction affected) values, which were plugged into the CompuSyn software to calculate the combination indices (CI values) at ED50, ED75, ED90 and ED95 (ED—Effective dose of combination).
These are values of drug dose and effect (fraction of cells affected by the treatment—FA values). The treatment time is 72 hours.
The data presented in this Table 5 is from an experiment in which Molm16 cells were treated with AZD1208 in combination with verteporfin (AZD1208 μM:verteporfin μM=1:200). These are values of drug dose and effect (fraction of cells affected by the treatment—FA values). The treatment time is 72 hours.
The data presented in this Table 6 is from an experiment in which Molm16 cells were treated with AZD1208 in combination with Bafilomycin A1 (AZD1208 μM:bafilomycin A1 μM=1:1). These are values of drug dose and effect (fraction of cells affected by the treatment—FA values). The treatment time is 48 hours.

For assay [1], the system named is acute myeloid leukemia cells (EOL1). Kind of assay: MTT assay of EOL1 cells treated with AZD1208 and chloroquine alone and in combination; CI by CompuSyn. Type of assay: cell-based, human. As to conditions: EOL1, 48 hours, scale 0-1. On the procedure: as §1
The data were analyzed using CompuSyn, an algorithm based on the Chao-Talalay method for detecting drug synergy (3).
Table 3. […] CI values were determined using CompuSyn at 50%, 75%, 90%, and 95% growth inhibition (GI) Cell growth was measured using standard 3-(4,5-dimethylthiazol-2-yl)-2,5-diphenyltetrazolium bromide (MTT) assays.
For orientation: Tetrazolium assays rely on reduction of a dye to a coloured formazan, in cell work by metabolically active cells.

As for `CO/C1=C\C(C)=C\[C@@H](C)[C@@H](O)[C@@H](C)C/C(C)=C/C=C/[C@H](OC)[C@@H]([C@@H](C)[C@@H](O)[C@H](C)[C@@]2(O)C[C@@H](O)[C@H](C)[C@@H](C(C)C)O2)OC1=O` [Bafilomycin A1], the “Effect (FA, fraction of cells affected)” value with Molm16 cells (Bafilomycin A1 alone 0.00625 μM, Molm16, 48 hours) is on record as 0.4744; in the assay with Molm16 cells (Bafilomycin A1 alone 0.0125 μM, Molm16, 48 hours), 0.7998; in the assay on Molm16 cells (Bafilomycin A1 alone 0.025 μM, Molm16, 48 hours), 0.8279.

Turning to `CCN(CC)CCCC(C)Nc1ccnc2cc(Cl)ccc12` (stereo not shown) [chloroquine], the “Effect (FA, fraction of cells affected)” value was determined as 0.05357 in the assay with Molm16 cells (chloroquine alone 10 μM, Molm16, 72 hours); 0.1376 in the assay on Molm16 cells (chloroquine alone 20 μM, Molm16, 72 hours); 0.4647 with Molm16 cells (chloroquine alone 40 μM, Molm16, 72 hours).

For the compound `N[C@@H]1CCCN(c2c(/C=C3/SC(=O)NC3=O)cccc2-c2ccccc2)C1` [AZD1208, (5E)-5-[[2-[(3R)-3-aminopiperidin-1-yl]-3-phenylphenyl]methylidene]-1,3-thiazolidine-2,4-dione], the “Effect (FA, fraction of cells affected)” value worked out at 0.1716 with Molm16 cells (AZD1208 alone 0.00625 μM, Molm16, 48 hours, Table 6); 0.2259 with Molm16 cells (AZD1208 alone 0.0125 μM, Molm16, 48 hours, Table 6); 0.2413 in the assay on Molm16 cells (AZD1208 alone 0.0125 μM, Molm16, 72 hours, Table 4); 0.3615 in the assay on Molm16 cells (AZD1208 alone 0.025 μM, Molm16, 48 hours, Table 6); 0.354 with Molm16 cells (AZD1208 alone 0.025 μM, Molm16, 72 hours, Table 4); 0.5497 with Molm16 cells (AZD1208 alone 0.05 μM, Molm16, 72 hours, Table 4). The “Effect (FA, fraction of cells affected)” value is given as 0.4847 in the assay on Molm16 cells (AZD1208 alone 0.05 μM, Molm16, 72 hours, Table 5) and 0.6474 with Molm16 cells (AZD1208 alone 0.1 μM, Molm16, 72 hours, Table 5). The “Effect (FA, fraction affected)” value turned out to be 0.505 in assay [1] (AZD1208 alone 0.05 μM), 0.639 in assay [1] (AZD1208 alone 0.1 μM) and 0.386 in assay [1] (AZD1208 alone 0.25 μM).

With Verteporfin, the “Effect (FA, fraction of cells affected)” value in the assay on Molm16 cells (Verteporfin alone 10 μM, Molm16, 72 hours) is 0.08412; with Molm16 cells (Verteporfin alone 20 μM, Molm16, 72 hours), 0.2143.
